Laboratory results published in patent US20140199279A1, “METHODS FOR ENHANCING THE DELIVERY OF GENE-[…]” (Bluebird Bio, Inc., priority 2011, published 2014).
Several values for one entry are separate records, joined by “and”; a condition that tells them apart may be missing. Equal values may be shown once.

Key:
[1] = system: G-CSF mobilized peripheral blood CD34+ cells; assay: Puromycin selection of HPV654-transduced G-CSF mobilized peripheral blood CD34+ cells; PCR of CFU-GM colonies for lentiviral vector; format: cell-based, human
[2] = system: bone marrow CD34+ cells; assay: Puromycin selection of HPV654-transduced bone marrow CD34+ cells; PCR of CFU-GM colonies for lentiviral vector; format: cell-based, human; details: BM CD34+ cells, 5 μg/ml puromycin for 24 hours, 14 days growth

With `COc1ccc(C[C@H](N)C(=O)N[C@H]2[C@@H](O)[C@H](n3cnc4c(N(C)C)ncnc43)O[C@@H]2CO)cc1` [puromycin] the “colonies positive for the lentiviral vector (transduced cells)” value (shortened to “colonies positive”) [1] was 88% and 100%, the “colonies positive” value ([2]; 10% HPV654 supernatant) was 100% and the “colonies positive” value ([2]; 50% HPV654 supernatant) was 79%.
